Key:
[1] = Cryogenic grinding of perfluorinated elastomers (Spex mill), MeOH extraction and LC/MS determination of perfluorinated carboxylic acids; assay type: physicochemical; settings: 10 wt.-% BHT versus no radical scavenger
Description: (§1) The general procedures described in "3M Standard Method for PFAS in Articles of Commerce, Edition 1, 02 June 2020", including the test and analytical equipment, was followed. The disclosure of this document is incorporated herein by reference in its entirety. In particular, reference is made with regard to the experimental and analytical setup and methods used in the present disclosure to the chapter "Part 3: Instrumental Analysis", 3.1.1 "Analytical Equipment and Materials" as well as 3.1.2 "HPLC Conditions (exemplary)".
(§2) The submitted samples were dissolved in methanol prior to analysis. Standard solutions were prepared from an aqueous solution of Adona that was determined to have a concentration of 28.36% by NMR.
In this study the inhibition effect of radical scavengers on the generation of perfluorinated carboxylic acids during cryogenic grinding of PFE and PFE compounds was investigated. As example 1, PTFE 191 plus 10 wt.-% BHT as radical scavenger was used. The amount of BHT was added as a powder to the gum in the milling container. Comparative Example 1 was PTFE 191 without BHT or any other radical scavengers. […]
The perfluorinated carboxylic acids were determined by extraction of the grinded material with MeOH and subsequent LC/MS measurements. […]

[2] = Cryogenic grinding of crystalline perfluorinated polymers on the Spex mill, MeOH extraction and LC/MS determination of perfluorinated carboxylic acids; assay type: physicochemical; settings: 10 wt.-% BHT versus no radical scavenger
Description: as §1, §2
In this study the inhibition effect of radical scavengers on the generation of perfluorinated carboxylic acids during cryogenic grinding of crystalline fluoropolymers was investigated. The polymers were grinded on a Spex or Retsch mill under the addition of BHT (2,6-Di-tert-butyl-4-methylphenol; CAS 128-37-0). The BHT was added as a powder to the polymer in the milling tube. Table 3. Milling conditions.
Perfluorinated carboxylic acids were extracted with MeOH and determined by LC/MS measurements as published in the 3M Standard test method for the determination of PFOA in articles of commerce. […]

lowers the PFOA formation [1]: within three orders of magnitude
formation of C3-C7 Perfluorocarboxylic acids is reduced by a factor of [2]: 18
SMILES: Cc1cc(C(C)(C)C)c(O)c(C(C)(C)C)c1 [BHT, 2,6-Di-tert-butyl-4-methylphenol]
